PubChem BioAssay (NCI)
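Tested at 5 concentrations; 48 h exposure; 96-well plates; endpoints linearly interpolated, else capped at highest concentration. The concentration for 50% growth inhibition is given as GI50. TGI denotes the concentration required for complete inhibition of growth.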

How the values were obtained:
Test in all cases: NCI-60 cell line screen, 48 h
[1] = test system: RXF 393 renal
[2] = test system: SF-295 CNS
[3] = test system: HOP-92 NSCLC
[4] = test system: UO-31 renal
[5] = test system: SW-620 colon
[6] = test system: ACHN renal
[7] = test system: UACC-62 melanoma
[8] = test system: T-47D breast
[9] = test system: SK-MEL-2 melanoma
[10] = test system: IGROV1 ovarian
[11] = test system: MOLT-4 leukemia
[12] = test system: M14 melanoma
[13] = test system: A549 NSCLC
[14] = test system: MDA-MB-435
[15] = test system: SK-OV-3 ovarian
[16] = test system: TK-10 renal
[17] = test system: KM12 colon
[18] = test system: 786-0 renal
[19] = test system: NCI-H522 lung
[20] = test system: OVCAR-3 ovarian
[21] = test system: SF-268 CNS
[22] = test system: SK-MEL-5 melanoma
[23] = test system: CAKI-1 renal
[24] = test system: PC-3 prostate
[25] = test system: SF-539 CNS
[26] = test system: LOX IMVI melanoma
[27] = test system: SR leukemia
[28] = test system: SNB-19 CNS
[29] = test system: HCT-116 colon
[30] = test system: NCI-H226 lung
[31] = test system: COLO 205 colon
[32] = test system: MDA-MB-231 breast
[33] = test system: SN12C renal
[34] = test system: HCC-2998 colon
[35] = test system: HT29 colon
[36] = test system: OVCAR-4 ovarian
[37] = test system: K-562 leukemia
[38] = test system: OVCAR-8 ovarian
[39] = test system: OVCAR-5 ovarian
[40] = test system: UACC-257 melanoma
[41] = test system: HS 578T breast
[42] = test system: MCF7 breast
[43] = test system: DU-145 prostate
[44] = test system: HOP-62 NSCLC
[45] = test system: BT-549 breast
[46] = test system: SNB-75 CNS
[47] = test system: SK-MEL-28 melanoma
[48] = test system: CCRF-CEM leukemia
[49] = test system: HL-60(TB) leukemia
[50] = test system: U251 CNS
[51] = test system: RPMI-8226 leukemia
[52] = test system: A498 renal
[53] = test system: HCT-15 colon
[54] = test system: NCI-H460 lung
[55] = test system: NCI-H23 lung
[56] = test system: MALME-3M melanoma
[57] = test system: NCI/ADR-RES ovarian

In the case of `CNCCCn1cc(C2=C(c3cn(C)c4ccccc34)C(=O)NC2=O)c2ccccc21`, the GI50 [1] is reported as 3.48 µM, the TGI [1] is reported as 6.95 µM and the GI50 [2] is reported as 4.73 µM. The TGI [2] was 10.3 µM, the GI50 [3] was 2.63 µM and the TGI [3] was 10.1 µM. It also gave a GI50 [4] of 3.58 µM, a TGI [4] of 11.8 µM and a GI50 [5] of 3.72 µM. The TGI [5] was 8.13 µM, the GI50 [6] was 3.99 µM and the TGI [6] was 13.9 µM. For the same compound, the GI50 [7] was 3.96 µM, the TGI [7] was 7.67 µM and the GI50 [8] was 5.66 µM. The TGI [8] was 15.1 µM, the GI50 [9] was 4.3 µM and the TGI [9] was 8.52 µM. For the same compound, the GI50 [10] was 5.41 µM, the TGI [10] was 11.4 µM and the GI50 [11] was 5 µM. The TGI [11] was 19.1 µM, the GI50 [12] was 4.17 µM and the TGI [12] was 7.98 µM. It also gave a GI50 [13] of 4.09 µM, a TGI [13] of 10.8 µM and a GI50 [14] of 3.31 µM. The TGI [14] was 6.9 µM, the GI50 [15] was 4.26 µM and the TGI [15] was 22.5 µM. It also gave a GI50 [16] of 4.16 µM, a TGI [16] of 10.7 µM and a GI50 [17] of 3.89 µM. It also gave a TGI [17] of 8.39 µM, a GI50 [18] of 4.77 µM and a TGI [18] of 11.3 µM. It also gave a GI50 [19] of 4.01 µM, a TGI [19] of 8.71 µM and a GI50 [20] of 5.14 µM. It also gave a TGI [20] of 13.8 µM, a GI50 [21] of 5.24 µM and a TGI [21] of 12 µM. It also gave a GI50 [22] of 3.77 µM, a TGI [22] of 7.3 µM and a GI50 [23] of 4.13 µM. For the same compound, the TGI [23] was 13.2 µM, the GI50 [24] was 4.01 µM and the TGI [24] was 14.6 µM. The GI50 [25] was 3.59 µM, the TGI [25] was 7.06 µM and the GI50 [26] was 3.93 µM. For the same compound, the TGI [26] was 8.28 µM, the GI50 [27] was 3.94 µM and the TGI [27] was 16.2 µM. The GI50 [28] was 6.29 µM, the TGI [28] was 22.7 µM and the GI50 [29] was 3.17 µM. The TGI [29] was 12.3 µM, the GI50 [30] was 6.2 µM and the TGI [30] was 22.8 µM. The GI50 [31] was 1.95 µM, the TGI [31] was 5.52 µM and the GI50 [32] was 5.32 µM. The TGI [32] was 15.1 µM, the GI50 [33] was 4.86 µM and the TGI [33] was 18.4 µM. For the same compound, the GI50 [34] was 5.13 µM, the TGI [34] was 11.7 µM and the GI50 [35] was 1.14 µM. It also gave a TGI [35] of 12.2 µM, a GI50 [36] of 3.06 µM and a TGI [36] of 14.1 µM. It also gave a GI50 [37] of 3.46 µM, a TGI [37] of 14.2 µM and a GI50 [38] of 4.99 µM. The TGI [38] was 12.6 µM, the GI50 [39] was 7.65 µM and the TGI [39] was 20.7 µM. The GI50 [40] was 4.57 µM, the TGI [40] was 8.81 µM and the GI50 [41] was 2.06 µM. For the same compound, the TGI [41] was 9.64 µM, the GI50 [42] was 2.74 µM and the TGI [42] was 6.93 µM. The GI50 [43] was 5.35 µM, the TGI [43] was 16.1 µM and the GI50 [44] was 5.59 µM. For the same compound, the TGI [44] was 13.4 µM, the GI50 [45] was 4.81 µM and the TGI [45] was 8.83 µM. It also gave a GI50 [46] of 0.281 µM, a TGI [46] of 2.95 µM and a GI50 [47] of 3.85 µM. The TGI [47] was 7.8 µM, the GI50 [48] was 4.91 µM and the TGI [48] was 20.4 µM. For the same compound, the GI50 [49] was 5.55 µM, the TGI [49] was 13.5 µM and the GI50 [50] was 3.14 µM. For the same compound, the TGI [50] was 6.96 µM, the GI50 [51] was 5.12 µM and the TGI [51] was 11.7 µM. The GI50 [52] was 4.29 µM, the TGI [52] was 8.35 µM and the GI50 [53] was 6.04 µM. For the same compound, the TGI [53] was 22.7 µM, the GI50 [54] was 4.53 µM and the TGI [54] was 9.19 µM. The GI50 [55] was 5.21 µM, the TGI [55] was 13.2 µM and the GI50 [56] was 5.37 µM. For the same compound, the TGI [56] was 10.4 µM, the GI50 [57] was 14.1 µM and the TGI [57] was 25 µM.
